Entries after “also recorded” stand apart in the source; their conditions may differ.
Assays:
[1] = tested on: various kinases in MCF7 cells; assay: Human Phospho-Kinase Antibody Array; assay type: cell-based; conditions: NPB 10 μM, 12 h, vs DMSO
Experimental: (A) Western blot analysis was used to assess the level of BAD Ser99 phosphorylation of pBAD, BAD, pAKT, and AKT in MCF7 cells after an increasing period of treatment with NPB (10 μM). Soluble whole cell extracts were run on an SDS-PAGE and immunoblotted as described in methodology. The sizes of detected protein bands in kDa are shown on the left side. (B) Kinases and phosphorylated substrates were detected using a Western Blot array (Proteome Profiler Human Phospho-Kinase Array Kit. MCF7 cells treated with NPB (10 μM) or DMSO for 12 h at 37° C. before preparation of cell lysate. Mean pixel density was analysed using ImageJ software and is represented below.
To elucidate the possibility that NPB decreased hBAD Ser99 phosphorylation by modulation of kinase activity, we assessed the effects of NPB on various kinases using Human Phospho-Kinase Antibody Array Kit from R&D Systems.

[2] = tested on: normal hepatocytes (LO2) and immortalized mammary epithelial cells (MCF10A and MCF12A); assay: Activity on normal immortalized cells; assay type: cell-based, human
Description: (§1) NPB was subsequently evaluated against panel of normal immortalized mammary epithelial cells (MCF10A and MCF12A), normal hepatocytes (LO2), mammary carcinoma (BT549, MDA-MB-231, MCF7, T47D, BT474), endometrial cancer (Ishikawa, Ecc1, RL95-2, AN3), ovarian cancer (SK-OV-3, OVCAR-2, Caov-3, HEY C2, Ovca433), liver cancer (Hep3B, H2P, H2M), colon cancer (HCT116, DLD-1, Caco-2), prostate cancer (PC3, LNCaP, DU145) and pancreatic cancer (AsPC-1, BxPC-3) cells. […] Using a Laplacian-modified Naïve Bayes classifier, NPB is subjected to in silico analysis which anticipates the human target of NPB as BAD protein.
(§2) Effect of NPB (5 μM) on carcinoma cell viability including, mammary, endometrial, ovarian, liver, colon, prostate, and pancreatic carcinoma cell lines. (A) Cell viability (B) caspase 3/7 activities and (C) cytotoxicity were evaluated using ApoTox-GIo™ Triplex Assay Kit as described in methodology. Statistical significance was assessed by an unpaired two-tailed Student's t-test using GraphPad Prism5. The column represents mean of triplicate determinations; bars, ±SD. **P<0.001, *P<0.05. Note: RFU, relative fluorescence unit; RLU, relative luminescence unit, #; non-transformed, immortalized epithelial cells; MB-231, MDA-MB-231. […]

[3] = tested on: MCF7, BT474, Caov-3, Ishikawa, AsPC-1 and DLD-1 cells; assay: NPB exposure with or without siRNA-mediated depletion of BAD (western blot, ApoTox-Glo); assay type: cell-based, human; conditions: 5 μM NPB
Experimental: (A) WB analysis was used to assess the levels of pBAD (Ser99) activity and BAD protein in MCF7, BT474, Caov-3, Ishikawa, AsPC-1, and DLD-1 cells after treatment with 5 μM NPB. Depletion of BAD expression was achieved using transient-transfection of small interfering (si)-RNA directed to the BAD transcript. Soluble whole cell extracts were run on an SDS-PAGE and immunoblotted as described in materials and methods. β-ACTIN was used as input control. Effects of NPB (5 μM) in MCF7, BT474, Caov-3, Ishikawa, AsPC-1, and DLD-1 cells. (B) Cell viability and (C) caspase 3/7 activities were evaluated using the ApoTox-GIo™ Triplex Assay Kit. All assays performed as described in methodology. Statistical significance was assessed by an unpaired two-tailed Student's t-test (P<0.05 was considered as significant) using GraphPad Prism5. The column represents mean of triplicate determinations; bars, ±SD. **P<0.001, *P<0.05. Note RFU, relative fluorescence unit; RLU, relative luminescence unit.
To confirm the functional specificity of NPB directed to the BAD protein, we further examined the effect of NPB exposure after siRNA-mediated depletion of BAD expression in 6 carcinoma cell lines (MCF7, BT474, Caov-3, Ishikawa, AsPC-1 and DLD-1). […] As described above, NPB treatment of the control transfected carcinoma cell lines decreased BAD phosphorylation (Ser99) compared to vehicle-treated cells. Concomitantly, exposure of the same carcinoma cell lines to NPB decreased cell viability and increased caspase 3/7 activity compared to vehicle-exposed cells.

[4] = tested on: carcinoma cell lines (mammary, endometrial, ovarian, liver, colon, prostate, pancreatic); assay: ApoTox-Glo Triplex assay (viability, caspase 3/7, cytotoxicity) in carcinoma cell lines; assay type: cell-based, human; conditions: all tested cancer cell lines
Description: as §1, §2

[5] = control transfected carcinoma cell lines, vs vehicle

O=C(NC1CCCC1)c1cccc(C(c2ccccc2O)N2CCN(c3cccc(Cl)c3Cl)CC2)c1 (stereo not shown) [NPB, N-cyclopentyl-3-((4-(2,3-dichlorophenyl)piperazin-1-yl)(2-hydroxyphenyl)methyl) benzamide]
kinase activity or phosphorylated substrates [1]: No significant changes
activity / cytotoxic effect on normal cells [2]: no substantial activity; also recorded: did not have cytotoxic effect
cell viability and caspase3/7 activity ([3]; carcinoma cell lines with depleted expression of BAD): did not affect
BAD phosphorylation (Ser99) [3, 5]: decreased
caspase 3/7 activity [3, 5]: increased
cell viability [3, 5]: decreased
apoptosis in cancer cell lines [4]: significantly enhanced; also recorded: induce apoptotic cell death

— patent US11292773B2, “Small molecule inhibitors of BCL-2-associated death promoter (BAD) phosphorylation” (NATIONAL UNIVERSITY OF SINGAPORE, priority 2017, dated 2022)
